Patent US7671077B2, “Neuroprotective small organic molecules, compositions and uses related thereto” (priority 2004, dated 2010)
pEC50: −log10 of the molar value.

test system: midbrain dopaminergic neurons; experiment: Dopamine (DA) uptake assay in primary midbrain cultures; assay type: cell-based, rat; settings: FIG. 36
Procedure: Primary midbrain cultures were prepared from rat embryo ventral mesencephalon as described previously by Lin et al (1994). In brief, rostral mesencephalic tegmentum of embryonic day 16 rat embryos was collected in DMEM/F12 (Hyclone SH30023.01) containing 2 mM glutamine on ice, The tissue was treated with 0.1% trypsin in Hanks' balanced salt solution (HBSS, Gibco 14175-095) for 15 min at 37° C. and dissociated mechanically by mild trituration with a fire-polished glass pipet in growth medium plus 2% heat-inactivated fetal bovine serum (FBS). The growth medium consisted of equal volumes of Dulbecco's minimal essential medium DMEM (Gibco 12100-046) and HAM's F12 nutrient mixture (Gibco 21700-075) supplemented with 33 mM glucose, 13 mM sodium bicarbonate, 5 mM HEPES, 2 mM glutamine, 25 μg/ml insulin, 100 μg/ml transferrin, 60 μM putrescine, 20 nM progesterone, 30 nM sodium selenite, 5 U/ml penicillin G and 5 μg/ml streptomycin. 24-well tissue culture plate was coated by adding 15 μg/ml poly-1-ornithine hydrobromide solution at 0.5 ml/well, incubated at room temperature for 1 hr. The coating solution was removed and the well washed 3 times with distilled water and one wash with HBSS. The dissociated cells were plated onto polyornithine-coated wells at 250,000-350,000 trypan blue-excluding viable cells per well in 500 μl of above medium containing 1% FBS. After 3 h when most of the cells had adhered to the bottom of the well, the medium was replaced with 500 μl of fresh medium without FBS. A serial dilution of the sample to be assayed for trophic activity was added to each well in duplicate at the time of medium change or within 24 h thereafter. Unless otherwise stated, cultures were incubated at 37° C. without any further medium change up to 7 days. Primary hindbrain cultures were prepared as described for the midbrain cultures except that the rostral raphe region (instead of the rostral mesencephalon) was dissected and trypsinized for 20 (instead of 15) min.
[^3H]DA uptake was measured in cultures at day 7, and all the solutions were maintained at 37° C. The growth medium was removed, and the cultures were rinsed twice with 0.25 ml of uptake buffer, which consists of HBSS (Gibco 11201-092) supplemented with 28 mM glucose, 15 mM HEPES, 1 mM ascorbic acid (an antioxidant), and […] pargyline (a monoamine oxidase inhibitor). The cultures were then incubated with 0.25 ml of fresh uptake buffer containing 50 nM [^3H]DA (NEN/DuPont) for 20 min at 37° C. [^3H]DA uptake was stopped by removing the incubation mixture, and cells were then washed twice with 0.5 ml of the uptake buffer at room temperature. To release [^3H]DA from the cells, the cultures were lysed with 0.2 ml of 0.1 N NaOH for 1 h at room temperature, the lysate was then added to 1 ml of Microscint-20 (Packard 6013621), and counted for radioactivity in a microplate scintillation counter (Packard TopCount, NXT). Background values were obtained by adding to the uptake buffer 0.5 mM GBR-12909, a specific inhibitor of the high-affinity uptake pump of the dopaminergic neurons, and were usually <5% of the ^3H uptake in untreated control cultures. Forskolin (Fk, 25 μM) was employed as a positive control.

In the case of `Cc1ccc(/C=C/C(=O)Nc2ccc(S(=O)(=O)Nc3cccs3)cc2)c(C)c1` [Compound Z′], the “stimulation maximum of DA uptake compared to compound A” value was “higher stimulation maximum”.

same assay, conditions: Rattus norvegicus, Neuron, compound concentration 0.25 μM; midbrain culture; read-out: DA uptake % of control

Molecule `O=C(Nc1ccc(S(=O)(=O)Nc2nccs2)cc1)c1cc2ccccc2oc1=O` [F′′′′] has an activity at 0.25 µM of 160%.

same assay, conditions: Rattus norvegicus, Neuron, compound concentration 0.3 μM; midbrain culture; read-out: DA uptake % of control

`O=C(Nc1ccc(S(=O)(=O)Nc2nccs2)cc1)c1sc2cc(Cl)ccc2c1Cl` [F′] gave an activity at 0.3 µM of 180%.

same assay, conditions: Rattus norvegicus, Neuron, compound concentration 0.6 μM; midbrain culture; read-out: DA uptake % of control

First: O=C(/C=C/c1ccc(C(F)(F)F)cc1)Nc1ccc(S(=O)(=O)Nc2nccs2)cc1 [A′′′]
Second: O=C(/C=C/c1cccc(C(F)(F)F)c1Cl)Nc1ccc(S(=O)(=O)Nc2nccs2)cc1 [C′′′]
The activity at 0.6 µM of the first is higher: 195% for the first, 180% for the second.

Going from `O=C(Nc1ccc(S(=O)(=O)Nc2nccs2)cc1)c1sc2ccccc2c1Cl` [D′] to `O=C(/C=C/c1ccccc1)Nc1ccc(S(=O)(=O)N2CCCCC2)cc1` [K′], the activity at 0.6 µM falls from 170% to 125%.

same assay, conditions: Rattus norvegicus, Neuron, compound concentration 0.7 μM; midbrain culture; read-out: DA uptake % of control

Going from `Cc1cc(NS(=O)(=O)c2ccc(NC(=O)/C=C/c3c(Cl)cccc3Cl)cc2)no1` [I] to `O=C(/C=C/c1cccc(Cl)c1)Nc1ccc(S(=O)(=O)Nc2cnc3ccccc3n2)cc1` [K], the activity at 0.7 µM rises from 150% to 190%.

same assay, conditions: Rattus norvegicus, Neuron, compound concentration 1.2 μM; midbrain culture; read-out: DA uptake % of control

With `O=C(/C=C/c1cccc([N+](=O)[O-])c1)Nc1ccc(S(=O)(=O)Nc2nccs2)cc1` [E′] the activity at 1.2 µM was 210%.

same assay, conditions: Rattus norvegicus, Neuron, compound concentration 1.25 μM; midbrain culture; read-out: DA uptake % of control

First: O=C(/C=C/c1ccc(Cl)cc1)Nc1ccc(S(=O)(=O)Nc2ncccn2)cc1 [A′]
Second: O=C(/C=C/c1ccc(O)cc1)Nc1ccc(S(=O)(=O)Nc2ccccn2)cc1 [L′′′]
The activity at 1.25 µM of the first is higher: 140% for the first, 130% for the second.

First: O=C(/C=C/c1c(Cl)cccc1Cl)Nc1ccc(S(=O)(=O)Nc2ccccn2)cc1 [A″]
Second: O=C(/C=C/c1c(Cl)cccc1Cl)Nc1ccc(S(=O)(=O)Nc2nc[nH]n2)cc1 [H″]
The activity at 1.25 µM of the first is higher: 340% for the first, 260% for the second.

Compared with `COc1cc(Br)c(/C=C/C(=O)Nc2ccc(S(=O)(=O)Nc3nccs3)cc2)cc1OC` [B′′′], `COc1ccc(/C=C/C(=O)Nc2ccc(S(=O)(=O)Nc3nccs3)cc2)c(Cl)c1OC` [I″] is lower in activity at 1.25 µM: 260% for the first, 245% for the second.

First: O=C(/C=C/c1cccc(Cl)c1)Nc1ccc(S(=O)(=O)Nc2nc[nH]n2)cc1 [B′′′′′]
Second: Cc1cccc(/C=C/C(=O)Nc2ccc(S(=O)(=O)Nc3nc[nH]n3)cc2)c1 [E″]
The activity at 1.25 µM of the first is lower: 230% for the first, 290% for the second.

Compared with `Cc1ccc(/C=C/C(=O)Nc2ccc(S(=O)(=O)Nc3cccs3)cc2)c(C)c1` [Compound Z′], `Cc1ccc(C)c(/C=C/C(=O)Nc2ccc(S(=O)(=O)Nc3nccs3)cc2)c1` [J″] is lower in activity at 1.25 µM: 365% for the first, 320% for the second.

`Cc1cc(C)cc(/C=C/C(=O)Nc2ccc(S(=O)(=O)Nc3nccs3)cc2)c1` [D′′′] and `O=C(/C=C/c1cccc(C(F)(F)F)c1)Nc1ccc(S(=O)(=O)Nc2nccs2)cc1` [H′′′′] are the same in activity at 1.25 µM: 240% for the first, 240% for the second.

First: O=C(/C=C/c1ccccc1Br)Nc1ccc(S(=O)(=O)Nc2nc[nH]n2)cc1 [D″]
Second: O=C(/C=C/c1ccccc1C(F)(F)F)Nc1ccc(S(=O)(=O)Nc2nc[nH]n2)cc1 [G″]
The activity at 1.25 µM of the first is lower: 310% for the first, 350% for the second.

same assay, conditions: Rattus norvegicus, Neuron, compound concentration 2.5 μM; midbrain culture; read-out: DA uptake % of control

`O=C(/C=C/c1ccccc1F)Nc1ccc(S(=O)(=O)Nc2nccs2)cc1` [A′′′′] and `COc1ccccc1/C=C/C(=O)Nc1ccc(S(=O)(=O)Nc2nccs2)cc1` [K′′′] are the same in activity at 2.5 µM: 170% for the first, 170% for the second.

Going from `O=C(/C=C/c1ccccc1)Nc1ccc(S(=O)(=O)Nc2nccs2)cc1` [B] to `Cc1cccc(/C=C/C(=O)Nc2ccc(S(=O)(=O)Nc3nccs3)cc2)c1` [G′′′′], the activity at 2.5 µM rises from 170% to 220%.

Going from `O=C(/C=C/c1ccccc1Cl)Nc1ccc(S(=O)(=O)Nc2ncccn2)cc1` [C′] to `O=C(/C=C/c1ccccc1Cl)Nc1ccc(S(=O)(=O)Nc2ccccn2)cc1` [F″], the activity at 2.5 µM rises from 140% to 180%.

First: Cc1ccc(/C=C/C(=O)Nc2ccc(S(=O)(=O)Nc3ccccn3)cc2)cc1 [C′′′′]
Second: Cc1ccc(/C=C/C(=O)Nc2ccc(S(=O)(=O)Nc3nccs3)cc2)cc1 [E]
The activity at 2.5 µM of the first is lower: 160% for the first, 260% for the second.

Going from `O=C(Nc1ccc(S(=O)(=O)Nc2cccs2)cc1)c1ccc2ccccc2c1` [C″] to `O=C(Nc1ccc(S(=O)(=O)Nc2nccs2)cc1)c1cc2ccccc2o1` [E′′′′], the activity at 2.5 µM rises from 200% to 260%.

Going from `Cn1c(C(=O)Nc2ccc(S(=O)(=O)Nc3nccs3)cc2)cc2ccccc21` [D′′′′] to `O=C(Nc1ccc(S(=O)(=O)Nc2nccs2)cc1)c1cc2ccccc2[nH]1` [K′′′′], the activity at 2.5 µM falls from 190% to 150%.

Compared with `Cc1ccccc1/C=C/C(=O)Nc1ccc(S(=O)(=O)Nc2nc[nH]n2)cc1` [D′′′′′], `COc1ccccc1/C=C\C(=O)Nc1ccc(S(=O)(=O)Nc2nccs2)cc1` [L′′′′] is lower in activity at 2.5 µM: 260% for the first, 200% for the second.

First: CN(C)c1ccc(C(=O)Nc2ccc(S(=O)(=O)Nc3nccs3)cc2)cc1 [E′′′]
Second: CC(C)(C)c1ccc(C(=O)Nc2ccc(S(=O)(=O)Nc3nccs3)cc2)cc1 [H]
The activity at 2.5 µM of the first is lower: 130% for the first, 150% for the second.

Compared with `O=C(/C=C/c1ccccc1Cl)Nc1ccc(S(=O)(=O)N2CCOCC2)cc1` [I′], `O=C(/C=C/c1ccccc1)Nc1ccc(S(=O)(=O)N2CCCCC2)cc1` [K′] is higher in activity at 2.5 µM: 150% for the first, 320% for the second.

Compared with `O=C(/C=C/c1cccc(F)c1)Nc1ccc(S(=O)(=O)Nc2nccs2)cc1` [I′′′′], `COc1cccc(/C=C/C(=O)Nc2ccc(S(=O)(=O)Nc3nccs3)cc2)c1` [J′′′] is lower in activity at 2.5 µM: 200% for the first, 140% for the second.

same assay, conditions: Rattus norvegicus, Neuron, compound concentration 5 μM; midbrain culture; read-out: DA uptake % of control

Compared with `CCc1nnc(NS(=O)(=O)c2ccc(NC(=O)c3ccc(Cl)cc3Cl)cc2)s1` [B′], `Cc1noc(NS(=O)(=O)c2ccc(NC(=O)/C=C/c3ccc(Cl)cc3)cc2)c1C` [J′] is higher in activity at 5 µM: 150% for the first, 180% for the second.

Going from `Cc1cccc(/C=C/C(=O)Nc2ccc(S(=O)(=O)Nc3ccccn3)cc2)c1` [B′′′′] to `Cc1cc(NS(=O)(=O)c2ccc(NC(=O)/C=C/c3ccccc3Cl)cc2)no1` [B″], the activity at 5 µM falls from 240% to 180%.

`COc1ccc(/C=C/C(=O)Nc2ccc(S(=O)(=O)Nc3nccs3)cc2)cc1` [I′′′] and `Cc1noc(NS(=O)(=O)c2ccc(NC(=O)/C=C/c3ccccc3Cl)cc2)c1C` [L′] are the same in activity at 5 µM: 140% for the first, 140% for the second.

same assay, conditions: Rattus norvegicus, Neuron, compound concentration 10 μM; midbrain culture; read-out: DA uptake % of control

Going from `CCc1nnc(NS(=O)(=O)c2ccc(NC(=O)c3ccccc3F)cc2)s1` [Compound Z] to `COc1cccc(C(=O)Nc2ccc(S(=O)(=O)Nc3nccs3)cc2)c1` [F′′′], the activity at 10 µM falls from 150% to 140%.

`COc1ccc(C(=O)Nc2ccc([S+]([O-])Nc3nccs3)cc2)cc1` (stereo not shown) [H′] and `CCOc1ccc(C(=O)Nc2ccc(S(=O)(=O)Nc3nccs3)cc2)cc1` [L] are the same in activity at 10 µM: 160% for the first, 160% for the second.

same assay, conditions: Rattus norvegicus, Neuron, compound concentration 20 μM; midbrain culture; read-out: DA uptake % of control

First: O=C(COc1ccc(Cl)cc1)Nc1ccc(S(=O)(=O)Nc2nccs2)cc1 [Compound D]
Second: O=C(Nc1ccc(S(=O)(=O)Nc2nccs2)cc1)c1ccc(F)c(F)c1 [F]
The activity at 20 µM of the first is higher: 210% for the first, 180% for the second.

First: Cc1cc(NS(=O)(=O)c2ccc(NC(=O)/C=C/c3ccccc3)cc2)no1 [G′]
Second: O=C(/C=C/c1ccccc1)Nc1ccc(S(=O)(=O)Nc2ccccn2)cc1 [G′′′]
The activity at 20 µM of the first is lower: 140% for the first, 180% for the second.

Going from `COc1ccc(/C=C/C(=O)Nc2ccc(S(=O)(=O)Nc3ccccn3)cc2)cc1` [H′′′] to `COc1cc(OC)cc(C(=O)Nc2ccc(S(=O)(=O)Nc3nccs3)cc2)c1` [J], the activity at 20 µM falls from 180% to 150%.

same assay, conditions: Rattus norvegicus, Neuron, compound concentration 40 μM; midbrain culture; read-out: DA uptake % of control

`O=C(/C=C/c1ccco1)Nc1ccc(S(=O)(=O)Nc2ccco2)cc1` [G] gave an activity at 40 µM of 190%.

same assay, conditions: Rattus norvegicus, Neuron; midbrain culture, FIG. 36; read-out: half-maximal effective concentration (EC50) for DA uptake stimulation

`Cc1ccc(/C=C/C(=O)Nc2ccc(S(=O)(=O)Nc3cccs3)cc2)c(C)c1` [Compound Z′] gave a pEC50 of ~6.70.

same assay, conditions: compound concentration 1.25 μM; midbrain culture; 1.25 µM

In the case of `O=C(/C=C/c1c(Cl)cccc1Cl)Nc1ccc(S(=O)(=O)Nc2nccs2)cc1` [C′′′′′], the “DA uptake % of control” value was 310% of control.

same assay, conditions: compound concentration 2.5 μM; midbrain culture

`O=C(/C=C/c1ccccc1Br)Nc1ccc(S(=O)(=O)Nc2nccs2)cc1` [J′′′′] was tested, and the DA uptake % of control was 210%.
